For two molecules, Bacteriostatic ring diameter and inhibition results are on record in patent US12290544B1, “Essential oil of stems and leaves of Chuzhou chrysanthemum and application thereof” (Chuzhou University, priority 2023, dated 2025).

SMILES strings stand for the structures. Where a name gives a salt, the structure may show the parent alone.

Experiment [1] relates to Escherichia coli. Kind of experiment: Bacterial inhibition assay (filter paper, bacteriostatic ring). It is filed as cell-based. Here is the method: (§1) Cultured Escherichia coli and Staphylococcus aureus are diluted into […] colony forming units per milliliter (CFU/mL) bacterial solution respectively, and evenly spread on a potato dextrose agar (PDA) plate. After standing for 10 min, the filter paper with a diameter of 6 mm made by a punch is spread on the PDA plate, and 6 pieces are evenly placed in each plate. 10 μL of essential oil of stems and leaves of Chuzhou chrysanthemum with a concentration of 5 mg/mL is added with a pipette, and the culture dish is placed in a 37° C. incubator for culture. In the same way, the bacterial inhibition assay of the essential oil of the stems and leaves of Chuzhou chrysanthemum is carried out at the concentrations of 10, 20, 50, and 100 mg/mL. After 16 to 18 h of incubation, a diameter of a bacteriostatic ring (including the piece) is measured with a vernier caliper and recorded. When measuring the bacteriostatic ring, the bacteriostatic ring with uniform and completely sterile growth should be selected, and its diameter should be measured with an outer edge of the bacteriostatic ring as the boundary. Six parallel experiments are performed for each concentration, and the mean and standard deviation are calculated. Ethyl acetate is used as blank control, and streptomycin sulfate and ampicillin are used as positive controls.

Experiment [2] has as its system Staphylococcus aureus. The experiment is described as above. It is filed as cell-based. The protocol: as §1
[3] abbreviates: positive control 50 ppm, read-out: Inhibitory rate.
Setting [4] is: positive control 500 ppm, read-out: Inhibitory rate.

Regarding `CC1(C)S[C@@H]2[C@H](NC(=O)[C@H](N)c3ccccc3)C(=O)N2[C@H]1C(=O)O` [Ampicillin], the figures for the Bacteriostatic ring diameter in experiment [1] (positive control 50 ppm) and in experiment [2] (positive control 50 ppm) were 17.12 ± 0.63B mm and 16.58 ± 1.17C mm, respectively. Also, the results for the inhibition at 50 ppm in experiment [1] (setting [3]) and in experiment [2] (setting [3]) were 54.8 ± 1.66% and 53.2 ± 3.03%, respectively.
For `[H]/N=C(/N)N[C@H]1[C@H](O)[C@@H](O)[C@H](O[C@@H]2O[C@@H](C)[C@](O)(C=O)[C@H]2O[C@@H]2O[C@@H](CO)[C@H](O)[C@@H](O)[C@@H]2NC)[C@@H](N/C(N)=N\[H])[C@@H]1O` [Streptomycin sulfate], the Bacteriostatic ring diameter in experiment [1] (positive control 500 ppm) was 15.98 ± 0.43C mm; in experiment [2] (positive control 500 ppm), 18.10 ± 0.48B mm. Besides, the values for the inhibition at 500 ppm in experiment [1] (setting [4]) and in experiment [2] (setting [4]) were 51.6 ± 1.3% and 57.3 ± 1.13%, respectively.
